From PubChem BioAssay (NCI) come the findings set out here.

Among the test systems are 786-0 renal; HCC-2998 colon; HCT-15 colon; HL-60(TB) leukemia; HOP-62 NSCLC; MALME-3M melanoma; NCI-H226 lung; OVCAR-4 ovarian; RPMI-8226 leukemia; U251 CNS.
Common to all, as to experiment: NCI-60 cell line screen, 48 h

Each structure is given as a SMILES string.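 Grown in 96-well plates, cells were treated for 48 hours with each compound at five concentrations. Insufficient inhibition: endpoint recorded as highest concentration tested. GI50 is the concentration that inhibits growth by half. At the TGI there is no net growth.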

For `COc1ccc(NC(=O)c2sc3nc(C)c(C(O)c4ccccc4)cc3c2N)cc1` (stereo not given), the GI50 in the test with 786-0 renal was 4.63 µM; in the test on HCC-2998 colon, 2.48 µM; with HCT-15 colon, 1.44 µM; in the test on HL-60(TB) leukemia it was 2.76 µM; with HOP-62 NSCLC, 3.67 µM; with MALME-3M melanoma, 3.22 µM. In addition, the GI50 in the test on NCI-H226 lung was 4.87 µM; in the test on OVCAR-4 ovarian, 3.72 µM; with RPMI-8226 leukemia it was 2.4 µM; with U251 CNS, 3.58 µM. In addition, the TGI is > 100 µM with 786-0 renal; 24.1 µM in the test on HCC-2998 colon; > 100 µM with HCT-15 colon; 10.3 µM in the test with HL-60(TB) leukemia; > 100 µM in the test with HOP-62 NSCLC; 44.9 µM in the test on MALME-3M melanoma. In addition, the TGI was > 100 µM in the test on NCI-H226 lung, > 100 µM with OVCAR-4 ovarian, 14.4 µM in the test with RPMI-8226 leukemia and > 100 µM in the test with U251 CNS.

For the molecule `NCCC(O)(P(=O)(O)O)P(=O)(O)O`, the GI50 in the test with 786-0 renal, with HCC-2998 colon, with HCT-15 colon, in the test with HL-60(TB) leukemia, in the test with HOP-62 NSCLC and with MALME-3M melanoma was > 100 µM in each case. Moreover, the GI50 in the test with NCI-H226 lung was 14.1 µM; with OVCAR-4 ovarian it was > 100 µM; in the test with RPMI-8226 leukemia, > 100 µM; in the test on U251 CNS, > 100 µM. The TGI in the test on 786-0 renal, with HCC-2998 colon, with HCT-15 colon, in the test with HL-60(TB) leukemia, in the test on HOP-62 NSCLC and in the test with MALME-3M melanoma was > 100 µM throughout. Also, the TGI in the test with NCI-H226 lung was 36.5 µM; with OVCAR-4 ovarian, > 100 µM; in the test with RPMI-8226 leukemia, > 100 µM; with U251 CNS, > 100 µM.

On to `COc1ccc(/C=C2\CCC(C)(CN(C)C)C2=O)cc1` (stereo not given), for which the TGI with 786-0 renal, with HCC-2998 colon, with HCT-15 colon, in the test with HL-60(TB) leukemia, in the test on HOP-62 NSCLC and in the test with MALME-3M melanoma was > 100 µM in each case. The TGI with NCI-H226 lung, with OVCAR-4 ovarian, in the test with RPMI-8226 leukemia and in the test with U251 CNS was > 100 µM throughout.

Consider `NS(=O)(=O)c1ccc(CCN=C=S)cc1`, for which the GI50 is 1.71 µM in the test with 786-0 renal; 1.88 µM in the test with HCC-2998 colon; 1.3 µM in the test with HCT-15 colon; 3.32 µM in the test with HL-60(TB) leukemia; 3.23 µM in the test with HOP-62 NSCLC; 2.22 µM with MALME-3M melanoma. For the same molecule, the GI50 is 2.84 µM in the test with NCI-H226 lung, 1.9 µM in the test with OVCAR-4 ovarian, 0.667 µM in the test with RPMI-8226 leukemia and 1.94 µM with U251 CNS. The TGI with 786-0 renal was determined as 3.34 µM; with HCC-2998 colon, 3.55 µM; in the test on HCT-15 colon, 3.37 µM; in the test on HL-60(TB) leukemia it was 11.2 µM; in the test on HOP-62 NSCLC, 10.1 µM; with MALME-3M melanoma it was 5.35 µM. The TGI in the test with NCI-H226 lung amounted to 8.52 µM; in the test with OVCAR-4 ovarian, 4.15 µM; in the test with RPMI-8226 leukemia, 5.2 µM; in the test with U251 CNS, 4.13 µM.

Consider `O=C(COc1ccccc1)NS(=O)(=O)c1ccccc1`, for which the TGI in the test with 786-0 renal, in the test on HCC-2998 colon, in the test on HCT-15 colon, in the test on HL-60(TB) leukemia, in the test with HOP-62 NSCLC and in the test on MALME-3M melanoma was > 100 µM throughout. Moreover, the TGI in the test on NCI-H226 lung, with OVCAR-4 ovarian, with RPMI-8226 leukemia and in the test on U251 CNS was > 100 µM each time.

In the case of `COC1=CC(c2ccc[nH]2)=N/C1=C\c1ccc[nH]1`, the GI50 in the test with 786-0 renal was 0.192 µM; in the test on HCC-2998 colon, 0.361 µM; in the test with HCT-15 colon, 0.0337 µM; in the test with HL-60(TB) leukemia, 0.0672 µM; in the test with HOP-62 NSCLC, 0.27 µM; in the test with MALME-3M melanoma, 0.723 µM. Moreover, the GI50 was 0.363 µM with NCI-H226 lung, 0.316 µM in the test on OVCAR-4 ovarian, 0.0651 µM in the test with RPMI-8226 leukemia and 0.379 µM in the test on U251 CNS. Also, the TGI in the test on 786-0 renal came to 0.712 µM; in the test on HCC-2998 colon, 9.54 µM; in the test on HCT-15 colon, 12.3 µM; in the test on HL-60(TB) leukemia it was 3.39 µM; in the test with HOP-62 NSCLC it was 9.27 µM; in the test with MALME-3M melanoma, 4.25 µM. For the same molecule, the TGI in the test on NCI-H226 lung turned out to be 12.4 µM; in the test with OVCAR-4 ovarian, 13.3 µM; in the test with RPMI-8226 leukemia, 0.57 µM; with U251 CNS, 12.4 µM.

Take `COc1ccc(/C(C)=N/OC(=O)c2c(-c3ccccc3Cl)noc2C)cc1CN1CCOCC1`: the TGI is 59.2 µM in the test on 786-0 renal; 93.8 µM with HCC-2998 colon; > 100 µM with HCT-15 colon; 56.1 µM with HL-60(TB) leukemia; 62.1 µM in the test on HOP-62 NSCLC; 43.7 µM in the test on MALME-3M melanoma. For the same molecule, the TGI was > 100 µM with NCI-H226 lung, > 100 µM in the test on OVCAR-4 ovarian, 93.6 µM with RPMI-8226 leukemia and 97.7 µM in the test on U251 CNS.

For `COc1cc(/C=C2\COc3ccc(O)c(O)c3C2=O)cc(OC)c1`, the GI50 in the test with 786-0 renal was 1.54 µM; with HCC-2998 colon it was 1.85 µM; in the test with HCT-15 colon, 0.483 µM; in the test on HL-60(TB) leukemia, 0.842 µM; in the test on HOP-62 NSCLC, 3.66 µM; in the test on MALME-3M melanoma it was 1.82 µM. Further, the GI50 is 4.94 µM in the test on NCI-H226 lung, 2.2 µM with OVCAR-4 ovarian, 0.558 µM in the test on RPMI-8226 leukemia and 0.861 µM in the test on U251 CNS. Further, the TGI in the test with 786-0 renal amounted to 3.78 µM; with HCC-2998 colon, 3.5 µM; in the test on HCT-15 colon it was 10.8 µM; in the test with HL-60(TB) leukemia, 11.2 µM; with HOP-62 NSCLC, 11.6 µM; in the test with MALME-3M melanoma it was 6.08 µM. The TGI with NCI-H226 lung worked out at 28.2 µM; in the test on OVCAR-4 ovarian it was 14.2 µM; in the test with RPMI-8226 leukemia it was 4.17 µM; with U251 CNS it was 4.09 µM.

As to `CCOC(=O)c1cn(Cc2ccccc2)c(=O)n1Cc1ccccc1`, the TGI with 786-0 renal, with HCC-2998 colon, in the test with HCT-15 colon, with HL-60(TB) leukemia, with HOP-62 NSCLC and with MALME-3M melanoma was > 100 µM in each case. The TGI in the test with NCI-H226 lung, in the test with OVCAR-4 ovarian, with RPMI-8226 leukemia and with U251 CNS was > 100 µM in each case.
